Data published in PMC5218480 (PLoS ONE, 2017).

Tested on: MV-4-11 cells
Assay: Gene expression microarray analysis (Affymetrix PrimeView) and GSEA
Format: cell-based, human
Parameters: RFU PODN (11730768_x_at) / Fold change /veh PODN (11730768_x_at) / RFU LINC00158 (11744669_a_at) / Fold change /veh LINC00158 (11744669_a_at) / RFU DUSP10 (11751237_a_at) / Fold change /veh DUSP10 (11751237_a_at) / RFU ID3 (11757404_x_at) / Fold change /veh ID3 (11757404_x_at) / RFU PLEKHG5 (11737974_s_at) / Fold change /veh PLEKHG5 (11737974_s_at) / RFU LRRC4B (11730491_at) / Fold change /veh LRRC4B (11730491_at) / RFU GIMAP4 (11747438_a_at) / Fold change /veh GIMAP4 (11747438_a_at) / RFU KRT8 (11758183_x_at) / Fold change /veh KRT8 (11758183_x_at) / RFU CNN1 (11734310_a_at) / Fold change /veh CNN1 (11734310_a_at) / RFU VPS37D (11726825_at) / Fold change /veh VPS37D (11726825_at) / RFU C10orf10 (11716522_x_at) / Fold change /veh C10orf10 (11716522_x_at) / RFU KIR2DL2 /// KIR2DL4 /// KIR2DL5A /// KIR2DL5B /// KIR2DS1 /// KIR2DS2 /// KIR2DS3 /// KIR2DS4 /// KIR3DL3 /// KIR3DL3 /// KIR3DS1 (11738374_at) / Fold change /veh KIR2DL2 /// KIR2DL4 /// KIR2DL5A /// KIR2DL5B /// KIR2DS1 /// KIR2DS2 /// KIR2DS3 /// KIR2DS4 /// KIR3DL3 /// KIR3DL3 /// KIR3DS1 (11738374_at) / RFU C1QL1 (11718748_at) / Fold change /veh C1QL1 (11718748_at) / RFU TMPRSS4 (11747572_a_at) / Fold change /veh TMPRSS4 (11747572_a_at) / RFU HAMP (11756126_x_at) / Fold change /veh HAMP (11756126_x_at) / RFU RNFT2 (11725882_a_at) / Fold change /veh RNFT2 (11725882_a_at) / RFU NR4A2 (11747474_a_at) / Fold change /veh NR4A2 (11747474_a_at) / RFU ABCC12 (11746883_a_at) / Fold change /veh ABCC12 (11746883_a_at) / RFU TMEM136 (11760407_x_at) / Fold change /veh TMEM136 (11760407_x_at) / RFU CLDN22 /// WWC2 (11732394_at) / Fold change /veh CLDN22 /// WWC2 (11732394_at) / RFU HLA-DPB1 (11760878_x_at) / Fold change /veh HLA-DPB1 (11760878_x_at) / RFU SPINT1 (11716480_a_at) / Fold change /veh SPINT1 (11716480_a_at) / RFU GAP43 (11754022_s_at) / Fold change /veh GAP43 (11754022_s_at) / RFU A4GNT (11735810_at) / Fold change /veh A4GNT (11735810_at) / RFU PRB3 (11715151_x_at) / Fold change /veh PRB3 (11715151_x_at) / RFU TUBB4B (11761932_at) / Fold change /veh TUBB4B (11761932_at) / RFU CAPN14 (11732068_a_at) / Fold change /veh CAPN14 (11732068_a_at) / RFU TMCC2 (11721928_a_at) / Fold change /veh TMCC2 (11721928_a_at) / RFU IRGQ (11745062_a_at) / Fold change /veh IRGQ (11745062_a_at) / RFU FAM174B (11720279_a_at) / Fold change /veh FAM174B (11720279_a_at) / RFU TMPRSS4 (11748680_a_at) / Fold change /veh TMPRSS4 (11748680_a_at) / RFU FAM212B (11763350_a_at) / Fold change /veh FAM212B (11763350_a_at) / RFU PLEKHG5 (11743358_a_at) / Fold change /veh PLEKHG5 (11743358_a_at) / RFU ZSCAN30 (11745921_a_at) / Fold change /veh ZSCAN30 (11745921_a_at) / RFU CMKLR1 (11741424_a_at) / Fold change /veh CMKLR1 (11741424_a_at) / RFU LOC101060620 /// MAPK8IP1 (11723275_at) / Fold change /veh LOC101060620 /// MAPK8IP1 (11723275_at) / RFU SPTSSB (11747773_x_at) / Fold change /veh SPTSSB (11747773_x_at) / RFU PRSS12 (11739890_at) / Fold change /veh PRSS12 (11739890_at) / RFU BIN1 (11741810_x_at) / Fold change /veh BIN1 (11741810_x_at) / RFU WNT11 (11732464_a_at) / Fold change /veh WNT11 (11732464_a_at) / RFU C10orf10 (11716521_a_at) / Fold change /veh C10orf10 (11716521_a_at) / RFU C5orf56 (11738089_at) / Fold change /veh C5orf56 (11738089_at) / RFU CYB561 (11721691_x_at) / Fold change /veh CYB561 (11721691_x_at) / RFU ANKRD19P (11752326_a_at) / Fold change /veh ANKRD19P (11752326_a_at) / RFU OR2T12 /// OR2T33 /// OR2T8 (11738714_s_at) / Fold change /veh OR2T12 /// OR2T33 /// OR2T8 (11738714_s_at) / RFU VCAN (11748164_a_at) / Fold change /veh VCAN (11748164_a_at) / RFU JSRP1 (11732532_at) / Fold change /veh JSRP1 (11732532_at) / RFU KRTAP10-11 (11738290_x_at) / Fold change /veh KRTAP10-11 (11738290_x_at) / RFU MYO3A (11730013_a_at) / Fold change /veh MYO3A (11730013_a_at) / RFU EBF3 (11725865_a_at) / Fold change /veh EBF3 (11725865_a_at) / RFU CAMK2N1 (11719241_x_at) / Fold change /veh CAMK2N1 (11719241_x_at) / RFU C5orf56 (11738088_a_at) / Fold change /veh C5orf56 (11738088_a_at) / RFU OLFML3 (11715873_a_at) / Fold change /veh OLFML3 (11715873_a_at) / RFU LOC100653217 /// NTM (11731650_a_at) / Fold change /veh LOC100653217 /// NTM (11731650_a_at) / RFU MAPK11 (11762145_a_at) / Fold change /veh MAPK11 (11762145_a_at) / RFU FIZ1 (11724087_x_at) / Fold change /veh FIZ1 (11724087_x_at) / RFU OASL (11726364_x_at) / Fold change /veh OASL (11726364_x_at) / RFU SOX15 (11748057_x_at) / Fold change /veh SOX15 (11748057_x_at) / RFU CD79A (11719716_a_at) / Fold change /veh CD79A (11719716_a_at) / RFU HIST1H1D (11736915_at) / Fold change /veh HIST1H1D (11736915_at) / RFU CASKIN2 (11723855_a_at) / Fold change /veh CASKIN2 (11723855_a_at) / RFU LOC730098 (11760151_x_at) / Fold change /veh LOC730098 (11760151_x_at) / RFU OR4N2 (11742367_at) / Fold change /veh OR4N2 (11742367_at) / RFU PRRT2 (11749266_a_at) / Fold change /veh PRRT2 (11749266_a_at) / RFU SNX32 (11753110_a_at) / Fold change /veh SNX32 (11753110_a_at) / RFU CDHR5 (11726645_a_at) / Fold change /veh CDHR5 (11726645_a_at) / RFU RCAN1 (11760418_a_at) / Fold change /veh RCAN1 (11760418_a_at) / RFU FAM167A (11723789_a_at) / Fold change /veh FAM167A (11723789_a_at) / RFU FAM26E (11764081_at) / Fold change /veh FAM26E (11764081_at) / RFU ISYNA1 (11749810_s_at) / Fold change /veh ISYNA1 (11749810_s_at) / RFU ACY1 (11761880_at) / Fold change /veh ACY1 (11761880_at) / RFU 11764098_at / Fold change /veh 11764098_at / RFU SAMD14 (11745864_x_at) / Fold change /veh SAMD14 (11745864_x_at) / RFU NPB (11741838_a_at) / Fold change /veh NPB (11741838_a_at) / RFU TMPRSS6 (11731388_a_at) / Fold change /veh TMPRSS6 (11731388_a_at) / RFU KRTAP10-2 (11738614_at) / Fold change /veh KRTAP10-2 (11738614_at) / RFU ARHGAP8 /// PRR5-ARHGAP8 (11727945_x_at) / Fold change /veh ARHGAP8 /// PRR5-ARHGAP8 (11727945_x_at) / RFU KRTAP5-7 /// NADSYN1 (11734609_at) / Fold change /veh KRTAP5-7 /// NADSYN1 (11734609_at) / RFU RASL12 (11751679_a_at) / Fold change /veh RASL12 (11751679_a_at) / RFU CDKN2B (11736163_a_at) / Fold change /veh CDKN2B (11736163_a_at) / RFU PRF1 (11729649_at) / Fold change /veh PRF1 (11729649_at) / RFU, ZNF638 /// ZNF638-IT1 / Fold change vs veh, ZNF638 /// ZNF638-IT1 / RFU, PANK3 / Fold change vs veh, PANK3 / RFU, SH3YL1 / Fold change vs veh, SH3YL1 / RFU, ZEB2 / Fold change vs veh, ZEB2 / RFU, NRIP1 / Fold change vs veh, NRIP1 / RFU, PTTG1IP / Fold change vs veh, PTTG1IP / RFU, CAPN2 / Fold change vs veh, CAPN2 / RFU, MED14 / Fold change vs veh, MED14 / RFU, SNORA58 / Fold change vs veh, SNORA58 / RFU, C1orf63 / Fold change vs veh, C1orf63 / RFU, LRRFIP1 / Fold change vs veh, LRRFIP1 / RFU, NDUFAF7 / Fold change vs veh, NDUFAF7 / RFU, SLC12A2 / Fold change vs veh, SLC12A2 / RFU, IBTK / Fold change vs veh, IBTK / RFU, ESF1 / Fold change vs veh, ESF1 / Fold change vs veh, TMEM50B / RFU, TAOK1 / Fold change vs veh, TAOK1 / RFU, ACBD3 / Fold change vs veh, ACBD3 / RFU, TMA16 / Fold change vs veh, TMA16 / RFU, RWDD3 / Fold change vs veh, RWDD3 / RFU, BCAT1 / Fold change vs veh, BCAT1 / RFU, EDEM3 / Fold change vs veh, EDEM3 / RFU, TMEM33 / Fold change vs veh, TMEM33 / RFU, WDR75 / Fold change vs veh, WDR75 / RFU, AHCTF1 / Fold change vs veh, AHCTF1 / RFU, TFRC / Fold change vs veh, TFRC / RFU, ZDHHC17 / Fold change vs veh, ZDHHC17 / RFU, NOM1 / Fold change vs veh, NOM1 / RFU, ARL8B / Fold change vs veh, ARL8B / RFU, ZBTB11 / Fold change vs veh, ZBTB11 / RFU, TAMM41 / Fold change vs veh, TAMM41 / RFU, KIAA1704 /// LOC100996395 / Fold change vs veh, KIAA1704 /// LOC100996395 / RFU, ING1 / Fold change vs veh, ING1 / RFU, TRMT61B / Fold change vs veh, TRMT61B / RFU, FUBP3 / Fold change vs veh, FUBP3 / RFU, TP53 / Fold change vs veh, TP53 / RFU, TNKS2 / Fold change vs veh, TNKS2 / RFU, ZFP14 / Fold change vs veh, ZFP14 / RFU, ACTR2 / Fold change vs veh, ACTR2 / RFU, PPP3R1 / Fold change vs veh, PPP3R1 / RFU, PIK3R1 / Fold change vs veh, PIK3R1 / RFU, HNRNPA1 / Fold change vs veh, HNRNPA1 / RFU, RNF170 / Fold change vs veh, RNF170 / RFU, ZNF28 / Fold change vs veh, ZNF28 / RFU, RNGTT / Fold change vs veh, RNGTT / RFU, OGT / Fold change vs veh, OGT / RFU, BRD1 / Fold change vs veh, BRD1 / RFU, MARS / Fold change vs veh, MARS / RFU, ZNF655 / Fold change vs veh, ZNF655 / RFU, FAHD1 / Fold change vs veh, FAHD1 / RFU, BDP1 / Fold change vs veh, BDP1 / RFU, LRRCC1 / Fold change vs veh, LRRCC1 / RFU, ARID1A / Fold change vs veh, ARID1A / RFU, ZNF146 / Fold change vs veh, ZNF146 / RFU, ZNF330 / Fold change vs veh, ZNF330 / RFU, GPN3 / Fold change vs veh, GPN3 / RFU, C9orf123 / Fold change vs veh, C9orf123 / RFU, N4BP2L2 / Fold change vs veh, N4BP2L2 / RFU, ARFIP1 / Fold change vs veh, ARFIP1 / RFU, FAM179B / Fold change vs veh, FAM179B / RFU, BCL10 / Fold change vs veh, BCL10 / RFU, UHRF1BP1L / Fold change vs veh, UHRF1BP1L / RFU, BET1 / Fold change vs veh, BET1 / RFU, CNOT2 / Fold change vs veh, CNOT2 / RFU, ZNF268 / Fold change vs veh, ZNF268 / Fold change vs veh, ZNF507 / RFU, DGCR2 / Fold change vs veh, DGCR2 / RFU, WDSUB1 / Fold change vs veh, WDSUB1 / Fold change vs veh, HSP90B1 /// MIR3652 / RFU, ADSS / Fold change vs veh, ADSS / RFU, GK / Fold change vs veh, GK / RFU, ZNF148 / Fold change vs veh, ZNF148 / RFU, TAF9 / Fold change vs veh, TAF9 / RFU, SLC1A5 / Fold change vs veh, SLC1A5 / RFU, SLMO2 / Fold change vs veh, SLMO2 / RFU, ABCC4 / Fold change vs veh, ABCC4 / RFU, LOC101060439 /// RAP1B / Fold change vs veh, LOC101060439 /// RAP1B / RFU, RFX7 / Fold change vs veh, RFX7 / RFU, GTPBP10 / Fold change vs veh, GTPBP10 / RFU, CNEP1R1 / Fold change vs veh, CNEP1R1 / RFU, BIVM-ERCC5 /// ERCC5 / Fold change vs veh, BIVM-ERCC5 /// ERCC5 / RFU, ILF3 / Fold change vs veh, ILF3 / RFU 11762660_at / Fold change /veh 11762660_at / RFU VCAN (11757783_s_at) / Fold change /veh VCAN (11757783_s_at) / RFU DDX43 (11728927_at) / Fold change /veh DDX43 (11728927_at) / RFU KRT8 (11758188_x_at) / Fold change /veh KRT8 (11758188_x_at) / RFU NKD1 (11759106_at) / Fold change /veh NKD1 (11759106_at) / RFU SRD5A1 (11742802_a_at) / Fold change /veh SRD5A1 (11742802_a_at) / RFU TPSAB1 /// TPSB2 (11721975_s_at) / Fold change /veh TPSAB1 /// TPSB2 (11721975_s_at) / RFU GSTM3 (11746129_a_at) / Fold change /veh GSTM3 (11746129_a_at) / RFU IL23R (11737362_x_at) / Fold change /veh IL23R (11737362_x_at) / RFU TMEM51 (11727254_a_at) / Fold change /veh TMEM51 (11727254_a_at) / RFU PIWIL2 (11732686_x_at) / Fold change /veh PIWIL2 (11732686_x_at) / RFU ORM1 (11744905_x_at) / Fold change /veh ORM1 (11744905_x_at) / RFU CCDC152 (11743942_at) / Fold change /veh CCDC152 (11743942_at) / RFU ECM1 (11717891_a_at) / Fold change /veh ECM1 (11717891_a_at) / RFU IL23R (11748794_a_at) / Fold change /veh IL23R (11748794_a_at) / RFU TNFAIP8L3 (11732012_x_at) / Fold change /veh TNFAIP8L3 (11732012_x_at) / RFU MBOAT4 (11741988_at) / Fold change /veh MBOAT4 (11741988_at) / RFU 11764193_at / Fold change /veh 11764193_at / RFU TMEM53 (11763286_at) / Fold change /veh TMEM53 (11763286_at) / RFU MAGEB2 (11727129_at) / Fold change /veh MAGEB2 (11727129_at) / RFU TMEM200A (11744735_a_at) / Fold change /veh TMEM200A (11744735_a_at) / RFU CCDC152 (11751479_a_at) / Fold change /veh CCDC152 (11751479_a_at) / RFU FAM211A (11726209_a_at) / Fold change /veh FAM211A (11726209_a_at) / RFU RGS16 (11746705_a_at) / Fold change /veh RGS16 (11746705_a_at) / RFU VCAN (11755009_s_at) / Fold change /veh VCAN (11755009_s_at) / RFU RHOB (11743442_s_at) / Fold change /veh RHOB (11743442_s_at) / RFU RGS16 (11720943_a_at) / Fold change /veh RGS16 (11720943_a_at) / RFU RGS16 (11720944_at) / Fold change /veh RGS16 (11720944_at) / RFU, VPS4B / Fold change vs veh, VPS4B / RFU, CREB1 / Fold change vs veh, CREB1 / RFU, DNAJC13 / Fold change vs veh, DNAJC13 / RFU, GNAQ / Fold change vs veh, GNAQ / RFU, CDK5R1 / Fold change vs veh, CDK5R1 / RFU, ZRANB3 / Fold change vs veh, ZRANB3 / RFU, CUL4A / Fold change vs veh, CUL4A / RFU, CCNY / Fold change vs veh, CCNY / RFU, UFL1 / Fold change vs veh, UFL1 / RFU, COG3 / Fold change vs veh, COG3 / RFU, DIAPH2 / Fold change vs veh, DIAPH2 / RFU, SKA2 / Fold change vs veh, SKA2 / RFU, AFF3 / Fold change vs veh, AFF3 / RFU, LMF1 / Fold change vs veh, LMF1 / RFU, IPO11 / Fold change vs veh, IPO11 / RFU, DFFB / Fold change vs veh, DFFB / RFU, FOXP1 / Fold change vs veh, FOXP1 / RFU, CARD8 / Fold change vs veh, CARD8 / RFU, STRN3 / Fold change vs veh, STRN3 / RFU, ADK / Fold change vs veh, ADK / RFU, RASSF2 / Fold change vs veh, RASSF2 / RFU, WIPF1 / Fold change vs veh, WIPF1 / RFU, LARP1B / Fold change vs veh, LARP1B / RFU, RASA1 / Fold change vs veh, RASA1 / RFU, RB1 / Fold change vs veh, RB1 / RFU, PPFIA1 / Fold change vs veh, PPFIA1 / RFU, MAT2A / Fold change vs veh, MAT2A / RFU, CCT5 / Fold change vs veh, CCT5 / RFU, WDR92 / Fold change vs veh, WDR92 / RFU, CUX1 / Fold change vs veh, CUX1 / RFU, TTC7A / Fold change vs veh, TTC7A / RFU, TMEM135 / Fold change vs veh, TMEM135 / RFU, DEPTOR / Fold change vs veh, DEPTOR / RFU, CPM / Fold change vs veh, CPM / RFU, DNAJB6 / Fold change vs veh, DNAJB6 / RFU, CACNA2D3 / Fold change vs veh, CACNA2D3 / RFU, DTX4 / Fold change vs veh, DTX4 / RFU, TFCP2 / Fold change vs veh, TFCP2 / RFU, GMCL1 /// GMCL1P1 / Fold change vs veh, GMCL1 /// GMCL1P1 / RFU, AEBP2 / Fold change vs veh, AEBP2 / RFU, SNHG1 /// SNORD22 /// SNORD25 /// SNORD26 /// SNORD27 /// SNORD28 /// SNORD29 /// SNORD31 / Fold change vs veh, SNHG1 /// SNORD22 /// SNORD25 /// SNORD26 /// SNORD27 /// SNORD28 /// SNORD29 /// SNORD31 / Fold change (Aza/veh), C12orf56 (ProbeSet 11735607_a_at) / Fold change (ACY-1035/veh), C12orf56 (ProbeSet 11735607_a_at) / Fold change (Aza/veh), FGFR1OP (ProbeSet 11751329_s_at) / Fold change (ACY-1035/veh), FGFR1OP (ProbeSet 11751329_s_at) / Fold change (Aza/veh), VPS36 (ProbeSet 11739960_a_at) / Fold change (ACY-1035/veh), VPS36 (ProbeSet 11739960_a_at) / RFU SYPL1 (11715823_x_at) / Fold change /veh SYPL1 (11715823_x_at) / RFU IGFBP7 (11715501_s_at) / Fold change /veh IGFBP7 (11715501_s_at) / RFU REEP3 (11722064_at) / Fold change /veh REEP3 (11722064_at) / RFU IGLL1 (11728026_x_at) / Fold change /veh IGLL1 (11728026_x_at): dose or concentration left out as unconfirmed
Conditions: MV-4-11 cells, 48 hours

## Nc1ncn([C@@H]2O[C@H](CO)[C@@H](O)[C@H]2O)c(=O)n1 [azacitidine]
  Fold change /veh CYB561 (11721691_x_at): 1.09
